Test results reported in PubChem BioAssay AID248 (DTP/NCI, 2004).
Toxic doses and inconclusive results are not listed. No stated cut-off is given here; in the data, active means T/C of 150% or more; inactive means T/C below 125%.

Tested on: L1210 leukemia ip in BDF1 mice, survival T/C
Assay: NCI In Vivo Anticancer Drug Screen. Data for tumor model L1210 Leukemia (intraperitoneal) in B6D2F1 (BDF1) mice
Details: endpoint: mean survival time, higher = longer survival
How it was run: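 In this screen, tumor-bearing mice given compound are compared to those given vehicle, and their survival values are reported as a treated-to-control quotient.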

[1] = dose: 100.0 mg/kg/injection, schedule: Q04DX003 (ip), vehicle: Klucel (hydroxypropylcellulose) (HPC)
[2] = dose: 100.0 mg/kg/injection, schedule: Q01DX009 (ip), vehicle: saline with Tween-80
[3] = dose: 200.0 mg/kg/injection, schedule: Q01DX009 (ip), vehicle: saline with Tween-80
[4] = dose: 200.0 mg/kg/injection, schedule: Q04DX003 (ip), vehicle: saline with Tween-80
[5] = dose: 100.0 mg/kg/injection, schedule: Q01DX009 (ip), vehicle: Klucel (hydroxypropylcellulose) (HPC)
[6] = dose: 200.0 mg/kg/injection, schedule: Q01DX009 (ip), vehicle: Klucel (hydroxypropylcellulose) (HPC)
[7] = dose: 200.0 mg/kg/injection, schedule: Q04DX003 (ip), vehicle: Klucel (hydroxypropylcellulose) (HPC)
[8] = dose: 400.0 mg/kg/injection, schedule: Q01DX009 (ip), vehicle: Klucel (hydroxypropylcellulose) (HPC)
[9] = dose: 400.0 mg/kg/injection, schedule: Q04DX003 (ip), vehicle: Klucel (hydroxypropylcellulose) (HPC)
[10] = dose: 50.0 mg/kg/injection, schedule: Q01DX001 (ip), vehicle: carboxymethylcellulose (CMC)
[11] = dose: 100.0 mg/kg/injection, schedule: Q01DX001 (ip), vehicle: carboxymethylcellulose (CMC)
[12] = dose: 200.0 mg/kg/injection, schedule: Q01DX001 (ip), vehicle: carboxymethylcellulose (CMC)
[13] = dose: 400.0 mg/kg/injection, schedule: Q01DX001 (ip), vehicle: carboxymethylcellulose (CMC)
[14] = dose: 100.0 mg/kg/injection, schedule: Q04DX003 (ip), vehicle: saline with Tween-80
[15] = dose: 50.0 mg/kg/injection, schedule: Q01DX009 (ip), vehicle: saline with Tween-80
[16] = dose: 100.0 mg/kg/injection, schedule: Q04DX002 (ip), vehicle: Klucel (hydroxypropylcellulose) (HPC)

Measured: T/C

COC(=O)c1cc([N+](=O)[O-])c(Cl)c([N+](=O)[O-])c1
inactive: dose: 12.5 mg/kg/injection, schedule: Q01DX009 (ip), vehicle: Klucel (hydroxypropylcellulose) (HPC) 98 % of control | dose: 25.0 mg/kg/injection, schedule: Q01DX009 (ip), vehicle: Klucel (hydroxypropylcellulose) (HPC) 87 % of control | [1] 89 % of control

O=C(Nc1c(Oc2ccc(Cl)cc2)ccc(Cl)c1S(=O)(=O)O)Nc1c(Oc2ccc(Cl)c(Cl)c2)ccc(Cl)c1S(=O)(=O)O
inactive: dose: 50.0 mg/kg/injection, schedule: Q04DX003 (ip), vehicle: saline 97 % of control | dose: 100.0 mg/kg/injection, schedule: Q04DX003 (ip), vehicle: saline 90 % of control | dose: 200.0 mg/kg/injection, schedule: Q04DX003 (ip), vehicle: saline 95 % of control

Cc1ccc(N=C2C=CC(=O)O2)cc1
inactive: [2] 98 % of control | [3] 100 % of control | dose: 400.0 mg/kg/injection, schedule: Q01DX009 (ip), vehicle: saline with Tween-80 95 % of control

Fc1ccc(NC(=S)S)cc1
inactive: dose: 6.25 mg/kg/injection, schedule: Q04DX003 (ip), vehicle: saline with Tween-80 94 % of control | dose: 12.5 mg/kg/injection, schedule: Q04DX003 (ip), vehicle: saline with Tween-80 99 % of control | dose: 25.0 mg/kg/injection, schedule: Q04DX003 (ip), vehicle: saline with Tween-80 91 % of control

CCCCCCCCCCCCCCCCNS(=O)(=O)c1ccc2sc(SC)nc2c1
inactive: [4] 90 % of control | dose: 400.0 mg/kg/injection, schedule: Q04DX003 (ip), vehicle: saline with Tween-80 90 % of control

CCOc1ccccc1NC(=O)Nc1ccc(Cl)cc1
inactive: [5] 97 % of control | [1] 100 % of control | [6] 103 % of control | [7] 96 % of control | [8] 101 % of control | [9] 100 % of control

CC1=CC(=O)C=CC1=Nc1cc(Cl)c(O)c(Cl)c1
inactive: dose: 50.0 mg/kg/injection, schedule: Q01DX001 (ip), vehicle: saline 101 % of control | dose: 100.0 mg/kg/injection, schedule: Q01DX001 (ip), vehicle: saline 95 % of control

CC(=O)Nc1c([N+](=O)[O-])ccc(Cl)c1Cl
inactive: [1] 98 % of control | [7] 97 % of control

O=C(c1ccccc1)N(c1ccccc1)c1ccccc1
inactive: [10] 107 % of control | [11] 101 % of control | [12] 107 % of control | [13] 103 % of control

c1ccc2c(c1)OCCOCCOCCOCCO2
inactive: dose: 6.25 mg/kg/injection, schedule: Q04DX002 (ip), vehicle: saline 89 % of control | dose: 12.5 mg/kg/injection, schedule: Q04DX002 (ip), vehicle: saline 103 % of control | dose: 25.0 mg/kg/injection, schedule: Q04DX002 (ip), vehicle: saline 113 % of control | dose: 50.0 mg/kg/injection, schedule: Q04DX002 (ip), vehicle: saline 94 % of control

CCCCCCCCCCCCCCCCC(=O)CC
inactive: [1] 96 % of control | [7] 91 % of control | [9] 92 % of control

O=C(CSc1cc(Cl)c(Cl)cc1Cl)Nc1cccc(Br)c1
inactive: dose: 50.0 mg/kg/injection, schedule: Q04DX003 (ip), vehicle: saline with Tween-80 94 % of control | [14] 87 % of control | [4] 96 % of control

COc1ccccc1N1CCN(CC(O)COc2ccccc2C(C)=O)CC1 (configuration not stated)
inactive: dose: 25.0 mg/kg/injection, schedule: Q01DX009 (ip), vehicle: saline with Tween-80 107 % of control | [15] 105 % of control | [2] 109 % of control | [14] 96 % of control

NC(N)=N/N=C/c1ccncc1
inactive: dose: 15.0 mg/kg/injection, schedule: Q01DX Z (ip), vehicle: saline 104 % of control | dose: 25.0 mg/kg/injection, schedule: Q01DX009 (ip), vehicle: saline 104 % of control | dose: 30.0 mg/kg/injection, schedule: Q01DX Z (ip), vehicle: saline 91 % of control | dose: 50.0 mg/kg/injection, schedule: Q01DX009 (ip), vehicle: saline 101 % of control | dose: 60.0 mg/kg/injection, schedule: Q01DX Z (ip), vehicle: saline 107 % of control | dose: 60.0 mg/kg/injection, schedule: Q01DX Z (oral), vehicle: saline 100 % of control | dose: 100.0 mg/kg/injection, schedule: Q01DX009 (ip), vehicle: saline 104 % of control | dose: 120.0 mg/kg/injection, schedule: Q01DX Z (ip), vehicle: saline 105 % of control | dose: 120.0 mg/kg/injection, schedule: Q01DX Z (oral), vehicle: saline 97 % of control | dose: 150.0 mg/kg/injection, schedule: Q01DX009 (ip), vehicle: saline 106 % of control | dose: 240.0 mg/kg/injection, schedule: Q01DX Z (oral), vehicle: saline 103 % of control

CC1(C)C(OS(C)(=O)=O)C(C)(C)C1OS(C)(=O)=O (configuration not stated)
inactive: [10] 111 % of control | [11] 121 % of control | dose: 100.0 mg/kg/injection, schedule: Q01DX001 (sc), vehicle: carboxymethylcellulose (CMC) 108 % of control | [12] 100 % of control | dose: 200.0 mg/kg/injection, schedule: Q01DX001 (sc), vehicle: carboxymethylcellulose (CMC) 108 % of control | [13] 100 % of control | dose: 400.0 mg/kg/injection, schedule: Q01DX001 (sc), vehicle: carboxymethylcellulose (CMC) 100 % of control

O=C(Nc1ccc(I)cc1)Nc1cc(C(F)(F)F)ccc1Cl
inactive: [5] 100 % of control | [6] 93 % of control | [8] 88 % of control

O=S(=O)(O)c1ccc2cc(N=Nc3c(O)ccc4ccccc34)ccc2c1
inactive: dose: 100.0 mg/kg/injection, schedule: Q04DX003 (ip), vehicle: carboxymethylcellulose (CMC) 95 % of control | dose: 200.0 mg/kg/injection, schedule: Q04DX003 (ip), vehicle: carboxymethylcellulose (CMC) 103 % of control | dose: 400.0 mg/kg/injection, schedule: Q04DX003 (ip), vehicle: carboxymethylcellulose (CMC) 95 % of control

CCCCCCCCOc1ccc(C=Nc2ccc(C)cc2)cc1
inactive: [5] 98 % of control | [6] 104 % of control | [8] 92 % of control

CCOC(=O)NC(C)(C)CC(C)(C)C
inactive: [5] 101 % of control | [1] 108 % of control | [6] 98 % of control | [7] 94 % of control | [8] 103 % of control | [9] 97 % of control

O=CN1CCN(c2ccccc2)CC1
inactive: [16] 97 % of control | dose: 200.0 mg/kg/injection, schedule: Q04DX002 (ip), vehicle: Klucel (hydroxypropylcellulose) (HPC) 87 % of control | dose: 400.0 mg/kg/injection, schedule: Q04DX002 (ip), vehicle: Klucel (hydroxypropylcellulose) (HPC) 91 % of control

O=C(N/N=C/c1cccc(F)c1)c1ccccc1Cl
inactive: [15] 91 % of control | [2] 102 % of control | [3] 87 % of control

NNC(=O)CNc1cccc(Cl)c1F
inactive: dose: 25.0 mg/kg/injection, schedule: Q04DX002 (ip), vehicle: Klucel (hydroxypropylcellulose) (HPC) 92 % of control | dose: 50.0 mg/kg/injection, schedule: Q04DX002 (ip), vehicle: Klucel (hydroxypropylcellulose) (HPC) 92 % of control | [16] 122 % of control

O=NN(CCCl)C(=O)Nc1ccc2c3c(cccc13)-c1ccccc1-2
inactive: dose: 118.0 mg/kg/injection, schedule: Q01DX009 (ip), vehicle: carboxymethylcellulose (CMC) 111 % of control | dose: 177.0 mg/kg/injection, schedule: Q01DX009 (ip), vehicle: carboxymethylcellulose (CMC) 119 % of control | dose: 266.0 mg/kg/injection, schedule: Q01DX009 (ip), vehicle: carboxymethylcellulose (CMC) 113 % of control | dose: 600.0 mg/kg/injection, schedule: Q01DX001 (ip), vehicle: carboxymethylcellulose (CMC) 117 % of control | dose: 600.0 mg/kg/injection, schedule: Q01DX009 (ip), vehicle: carboxymethylcellulose (CMC) 98 % of control

NSc1ccc(N)s1
inactive: dose: 100.0 mg/kg/injection, schedule: Q04DX002 (ip), vehicle: saline with Tween-80 108 % of control | dose: 200.0 mg/kg/injection, schedule: Q04DX002 (ip), vehicle: saline with Tween-80 101 % of control | dose: 400.0 mg/kg/injection, schedule: Q04DX002 (ip), vehicle: saline with Tween-80 108 % of control
